# Laboratory results reported in publication PMC11768839 (Viruses, 2024).
# How the values were obtained:
# [1] = test system: influenza PR8; format: cell-based, Influenza A virus PR8
# [2] = test system: HCoV-229E
structure (smiles),measurement,setting,value
"O=[N+]([O-])c1ccc(Nc2ccc(Cl)c(C(F)(F)F)c2)c2nonc12 [Compound 5342191, N-[4-chloro-3-(trifluoromethyl)phenyl]-7-nitro-2,1,3-benzoxadiazol-4-amine]",sensitivity of selected influenza PR8 virus to EC90 dose,[1],remained sensitive
same,sensitivity of selected HCoV-229E virus to EC90 dose,[2],remained sensitive
